# Literature values, collected in patent publication US20210061712A1, “COMPOSITE STRUCTURAL MATERIAL COMPOSITIONS RESISTANT TO BIODEGRADATION” (The University of British Columbia, priority 2018, published 2021).
# Where two headings read alike, the source gives them in different places.
# Legend:
# [1] = tested on: Desulfovibrio desulfricans strain; details: pipe's internal wall coated with the oxide in epoxy
compound,measurement,setting,value
[Cu+2] [Cu],activity of SRB species,SRB species; 20 mg/L,reduced
[Zn+2] [Zn],activity of SRB species,SRB species; 20 mg/L,reduced
O=CCCCC=O [glutaraldehyde],activity of SRB species,SRB species; 10 mg/L,reduced
[Na+].[Na+].[O]=[W](=[O])([O-])[O-] [sodium tungstate],growth of A. thiooxidans cells,A. Thiooxidans cells,completely inhibits the growth
silver oxide,bacterial corrosion of concrete pipe,[1],reduce the bacterial corrosion
